Experimental findings from ChEMBL document CHEMBL5604063, “ASAP - DENV-2 NS2B-NS3 protease fluorescence dose response” (2024) are described below.

Several values for one entry are separate records, joined by “and”; a condition that tells them apart may be missing. Identical values can stand only once.

For the test, the target named is Genome polyprotein (dengue virus type 2, UniProt P29990). The format is functional, Thailand/16681/1984.
Sequence of Genome polyprotein (P29990 1346-1475 limits assumed): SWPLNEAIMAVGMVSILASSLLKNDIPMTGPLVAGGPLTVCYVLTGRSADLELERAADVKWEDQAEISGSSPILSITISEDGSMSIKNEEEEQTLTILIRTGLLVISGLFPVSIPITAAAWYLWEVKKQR
Sequence of Genome polyprotein (P29990 1476-2093 limits assumed): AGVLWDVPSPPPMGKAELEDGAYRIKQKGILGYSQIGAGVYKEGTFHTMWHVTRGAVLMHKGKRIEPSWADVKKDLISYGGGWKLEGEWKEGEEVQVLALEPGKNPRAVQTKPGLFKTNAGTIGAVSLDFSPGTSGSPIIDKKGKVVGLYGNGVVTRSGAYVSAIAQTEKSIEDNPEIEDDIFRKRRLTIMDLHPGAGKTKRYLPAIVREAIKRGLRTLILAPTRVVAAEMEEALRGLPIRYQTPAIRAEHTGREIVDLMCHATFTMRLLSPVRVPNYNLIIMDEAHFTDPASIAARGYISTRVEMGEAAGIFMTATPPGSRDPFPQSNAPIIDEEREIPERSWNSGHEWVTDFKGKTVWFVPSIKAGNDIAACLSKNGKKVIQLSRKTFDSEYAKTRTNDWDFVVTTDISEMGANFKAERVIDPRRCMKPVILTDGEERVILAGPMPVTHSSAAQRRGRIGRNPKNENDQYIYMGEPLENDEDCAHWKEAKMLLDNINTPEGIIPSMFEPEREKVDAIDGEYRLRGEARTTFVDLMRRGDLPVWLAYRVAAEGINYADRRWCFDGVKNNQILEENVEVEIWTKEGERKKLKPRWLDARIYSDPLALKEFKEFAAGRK

`Cc1ncsc1C(=O)N[C@H](C(=O)Nc1cccc(CN)c1)c1ccc(OCc2ccccc2)cc1` had an IC50 of more than 99.5 µM.

`O=C(O)c1cc(Cl)ccc1NS(=O)(=O)c1ccc(OCc2ccncc2)cc1` had an IC50 of more than 99.5 µM.

`Cc1noc(C)c1C(=O)N[C@@H](C(=O)Nc1cccc(CN)c1)c1ccc(OCc2ccccc2)cc1` had an IC50 of more than 99.5 µM.

For the compound `COc1ccc(F)cc1-c1ccc(S(=O)(=O)Nc2ccc(Cl)cc2C(=O)O)cc1`, it took 11.7 µM to reach half-maximal inhibition (IC50).

`O=C(NCCO)c1cc(Cl)ccc1NS(=O)(=O)c1ccc(Oc2ccccc2Cl)cc1` registered an IC50 of 68 µM.

With `NCc1cccc(NC(=O)[C@H](NC(=O)C2CCC2)c2ccc(OCc3ccccc3)cc2)c1`, the IC50 was more than 99.5 µM.

For `O=C(O)c1cc2c(cc1NS(=O)(=O)c1ccc(F)cc1)CCC2`, the IC50 was more than 99.5 µM.

`CCc1ccccc1COc1ccc(S(=O)(=O)Nc2ccc(Cl)cc2C(=O)O)cc1` gave an IC50 of 6.5 µM.

Take `NCc1cccc(NC(=O)C[C@H](NC(=O)OCc2ccccc2)c2ccc(OC(F)(F)F)cc2)c1`: the IC50 is 42.9 µM and 44.6 µM.

Compound `N[C@]12CCC[C@](C(=O)NCc3ccc4c(c3)CCNCC4)(CC1)C2` showed an IC50 of more than 99.5 µM.

`O=C(O)c1cc(F)c(F)c(F)c1NS(=O)(=O)c1ccc(Oc2ccccc2Cl)cc1` registered an IC50 of 24.5 µM.

`NCc1cccc(NC(=O)C[C@H](NC(=O)OCc2ccccc2)c2ccc(Cl)c(Br)c2)c1`: the half-maximal inhibitory concentration (IC50) was 22.8 µM and 22.9 µM and 12.9 µM and 12.6 µM.

The compound `CCn1nccc1-c1cccc([C@@H](NC(=O)OCc2ccccc2)C(=O)Nc2cccc(CN)c2)c1` returned an IC50 of more than 99.5 µM.

As for `NCCNC(=O)c1cc(Cl)ccc1NS(=O)(=O)c1ccc(Oc2ccccc2Cl)cc1`, the IC50 was more than 99.5 µM.

For the compound `O=C(O)c1cc(Cl)ccc1NS(=O)(=O)c1ccc(OCc2nnnn2C2CCC2)cc1`, the IC50 was more than 99.5 µM.

On to `NCc1cccc(NC(=O)[C@H](NC(=O)OCc2ccccc2)c2ccc(Br)c(Cl)c2)c1`, for which the IC50 is 11 µM and 8.42 µM and 6.79 µM and 9.88 µM and 12.5 µM and 8.05 µM.

Regarding `NCc1cccc(NC(=O)[C@H](NC(=O)OCc2ccccc2)c2ccc(Br)c(F)c2)c1`, the IC50 came out at 88.2 µM. This lies in the double-digit micromolar range.

`CC(C)Oc1ccccc1C(=O)N[C@H](C(=O)Nc1cccc(CN)c1)c1ccc(OCc2ccccc2)cc1` returned an IC50 of 74.2 µM.

In the case of `O=C(O)c1cc(Cl)ccc1NS(=O)(=O)c1ccc(OCc2cncnc2)cc1`, the IC50 is more than 99.5 µM.

`O=C(O)c1cc(Cl)ccc1NS(=O)(=O)c1ccc(NC2CCNCC2)nc1`: the IC50 is more than 99.5 µM.

For the compound `NCc1cccc(CNC(=O)c2cc(Cl)cc(NC(=O)OCc3ccccc3)c2)c1`, the IC50 was more than 99.5 µM.

`NCc1cccc(NC(=O)[C@H](NC(=O)OCc2ccccc2)c2cccc(-c3ccc(S(N)(=O)=O)cc3)c2)c1` had an IC50 of more than 99.5 µM.

The compound `CCn1c(=O)c(N2C[C@H]3C[C@@]3(C(F)F)C2)nc2ccccc21` registered an IC50 of more than 99.5 µM.

`Cc1cc(F)cc(N(C)C(=O)c2ccc(C3(CN)CC3)cc2)c1` had an IC50 of more than 99.5 µM.

With `NCc1cccc(NC(=O)[C@H]2[C@H]3CCCC[C@H]3[C@@H]2NC(=O)OCc2ccccc2)c1`, the IC50 worked out at 95.5 µM. That is a double-digit micromolar value.

The compound `CCn1c(=O)c(N2CC[C@H](c3nccn3C)C2)nc2ccccc21` gave an IC50 of more than 99.5 µM.

On to `Cc1n[nH]cc1CC(=O)N1CCCC12CCN(C(=O)c1ccnc(CO)c1)CC2`, for which the IC50 is more than 99.5 µM.

In turn, `NCc1cccc(NC(=O)C[C@H](NC(=O)OCc2ccccc2)c2ccc(Cl)c(F)c2)c1` yielded an IC50 of 97.6 µM.

In turn, `CC[C@H]1CN(C(=O)c2ccc(C3(CN)CC3)cc2)Cc2ccccc21` returned an IC50 of more than 99.5 µM.

With `Cn1cnc2c1CN(Cc1ccc3c(c1)CCNCC3)CC2`, the IC50 is more than 99.5 µM.

The compound `NCC1(NC(=O)[C@H](NC(=O)OCc2ccccc2)c2ccc(OCc3ccccc3)cc2)CCCCC1` came in with an IC50 of more than 99.5 µM.

For `Cn1ccnc1C(=O)N[C@H](C(=O)Nc1cccc(CN)c1)c1ccc(OCc2ccccc2)cc1`, the IC50 was more than 99.5 µM.

In turn, `CS(=O)(=O)c1ccc(-c2ccc(S(=O)(=O)Nc3ccc(Cl)cc3C(=O)O)cc2)cc1` yielded an IC50 of 33.5 µM.

Turning to `NCc1cccc(NC(=O)[C@H](NC(=O)OCc2ccccc2)c2cccc(-c3cncc(F)c3)c2)c1`, the IC50 was more than 99.5 µM.

`CCC(C)(C)C(=O)N[C@H](C(=O)Nc1cccc(CN)c1)c1ccc(OCc2ccccc2)cc1`: the IC50 is more than 99.5 µM.

`CCn1c(=O)c(N2CC[C@H](N3CCCC3=O)C2)nc2ccccc21` registered an IC50 of more than 99.5 µM.

The compound `CCn1c(=O)c(N2CC[C@H](c3cnccn3)C2)nc2ccccc21` gave an IC50 of more than 99.5 µM.

`CCn1c(=O)c(N2CC[C@]3(CCNC3=O)C2)nc2ccccc21`: the IC50 was more than 99.5 µM.

With `NCc1cccc(NC(=O)[C@]2(NC(=O)OCc3ccccc3)COc3cc(Br)ccc32)c1`, the IC50 is more than 99.5 µM.

The compound `CCn1c(=O)c(N2C[C@H]3COC[C@@]3(C)C2)nc2ccccc21` gave an IC50 of more than 99.5 µM.

With `CC(C)[C@@H]1[C@H](C(=O)Nc2cccc(CN)c2)CCN1C(=O)OCc1ccccc1`, the half-maximal inhibitory concentration (IC50) is more than 99.5 µM.

For `NCc1cccc(NC(=O)[C@H](NC(=O)C2CCCCC2)c2ccc(OCc3ccccc3)cc2)c1`, the IC50 was 17.6 µM and 20.7 µM and 12.3 µM.

The compound `Cn1ncc2cc(C(=O)N3CCC(NC(=O)[C@]4(C)CCC[C@H]4O)CC3)cc(O)c21` gave an IC50 of more than 99.5 µM.

For the compound `CCn1c(=O)c(N2CC[C@H](c3ccccc3)C2)nc2ccccc21`, the IC50 was more than 99.5 µM.

As to `CCOC(=O)c1cc(C(=O)N[C@H](C(=O)Nc2cccc(CN)c2)c2ccc(OCc3ccccc3)cc2)n(C)n1`, the IC50 was 24.3 µM and 24.8 µM.

Regarding `Cc1occ(C(F)(F)F)c1C(=O)N[C@H](C(=O)Nc1cccc(CN)c1)c1ccc(OCc2ccccc2)cc1`, the IC50 was more than 99.5 µM.

`NCc1cccc(NC(=O)[C@H](NC(=O)[C@H]2CCOC2)c2ccc(OCc3ccccc3)cc2)c1` registered an IC50 of more than 99.5 µM.

In turn, `NCc1cccc(NC(=O)[C@H](NC(=O)c2ccccc2Cl)c2ccc(OCc3ccccc3)cc2)c1` displayed an IC50 of 45.8 µM.

For `C[C@]1(C(=O)N[C@H](C(=O)Nc2cccc(CN)c2)c2ccc(OCc3ccccc3)cc2)COc2ccccc2O1`, the IC50 was determined as 52.3 µM.

Turning to `NCc1cccc(NC(=O)[C@@H](NC(=O)OCc2ccccc2)c2ccc(OCc3ncccn3)cc2)c1`, the IC50 was more than 99.5 µM.

As for `NCc1cccc(NC(=O)[C@H]2[C@H]3CCCCC[C@H]3[C@H]2NC(=O)OCc2ccccc2)c1`, the concentration for half-maximal inhibition (IC50) is 23.2 µM and 34.2 µM and 10.4 µM and 9.2 µM and 8.71 µM.

Turning to `CCn1c(=O)c(N2CC[C@]3(CNC(=O)O3)C2)nc2ccccc21`, the IC50 was more than 99.5 µM.

On to `Cc1cc(-c2cccc([C@@H](NC(=O)OCc3ccccc3)C(=O)Nc3cccc(CN)c3)c2)ccn1`, for which the IC50 was more than 99.5 µM.

`CCn1c(=O)c(N2C[C@H]3CCS(=O)(=O)[C@H]3C2)nc2ccccc21` had an IC50 of more than 99.5 µM.

As to `NCc1cccc(NC(=O)[C@H](NC(=O)c2ccncc2)c2ccc(OCc3ccccc3)cc2)c1`, the IC50 is more than 99.5 µM.

Take `NCc1cccc(N(C(=O)CNC(=O)OCc2ccccc2)c2ccc(OCc3ccccc3)cc2)c1`: the IC50 was more than 99.5 µM.

Regarding `NCc1cccc(NC(=O)[C@H](NC(=O)OCc2ccccc2)c2ccc(CO)cc2)c1`, the IC50 is more than 99.5 µM.

In turn, `NCc1cccc(NC(=O)[C@H](NS(=O)(=O)c2ccc(Oc3ccccc3Cl)cc2)c2ccc(OCc3ccccc3)cc2)c1` displayed an IC50 of more than 99.5 µM.

As for `Cc1ccc([C@H]2[C@H](C)CN2C(=O)c2ccc(C(F)(F)CN)cc2)cc1`, the IC50 was more than 99.5 µM.

Compound `O=C(O)c1ccc(F)c(F)c1NS(=O)(=O)c1ccc(Oc2ccccc2Cl)cc1` came in with an IC50 of 31.1 µM.

For `CCn1c(=O)c(N2C[C@@H]3C[C@]3(CO)C2)nc2ccccc21`, the IC50 is more than 99.5 µM.

The compound `CCn1c(=O)c(N2C[C@H](O)C3(CC3)C2)nc2ccccc21` came in with an IC50 of more than 99.5 µM.

The compound `CCn1c(=O)c(N2C[C@]3(CO)C[C@H]2CO3)nc2ccccc21` showed an IC50 of more than 99.5 µM.

For the compound `CCc1n[nH]cc1-c1cccc([C@H](NC(=O)OCc2ccccc2)C(=O)Nc2cccc(CN)c2)c1`, the IC50 was more than 99.5 µM.

In the case of `CCn1c(=O)c(N2C[C@@H]3[C@H](C2)[C@H]2CC[C@@H]3O2)nc2ccccc21`, the IC50 is more than 99.5 µM.

The compound `COc1ccccc1-c1ccc(S(=O)(=O)Nc2ccc(Cl)cc2C(=O)O)cc1` gave an IC50 of 12.8 µM.

As for `NCc1cccc(NC(=O)[C@H]2[C@H]3CCC[C@H]3[C@@H]2NC(=O)OCc2ccccc2)c1`, the IC50 is more than 99.5 µM.

`NCc1cccc(NC(=O)C[C@H](NC(=O)OCc2ccccc2)c2ccc(C(F)(F)F)cc2)c1` had an IC50 of 58.1 µM.

`CCn1c(=O)c(N2CCC[C@@H]2Cn2cncn2)nc2ccccc21` gave an IC50 of more than 99.5 µM.

Compound `O=C(O)c1c(F)cc(F)cc1NS(=O)(=O)c1ccc(Oc2ccccc2Cl)cc1` returned an IC50 of 41.5 µM.

Compound `N[C@@H](Cc1c[nH]cn1)C(=O)N1CCC2(CC1)OCCc1cc(O)ccc12` had an IC50 of more than 99.5 µM.

For `CCn1c(=O)c(N2CC[C@H](c3nncs3)C2)nc2ccccc21`, the IC50 is more than 99.5 µM.

With `NC[C@H]1C[C@@H](NC(=O)c2cc(Cl)ccc2NS(=O)(=O)c2ccc(Oc3ccccc3Cl)cc2)C1`, the IC50 is more than 99.5 µM.

Take `CN(C)CCNC(=O)[C@H](NC(=O)OCc1ccccc1)c1ccc(OCc2ccccc2)cc1`: the IC50 was more than 99.5 µM.

`NCc1cccc(NC(=O)C[C@H](NC(=O)OCc2ccccc2)C2CCCCC2)c1`: the IC50 was 67.1 µM and 69.7 µM.

Compound `O=C(N[C@@H](C(=O)NCC1CCNCC1)c1ccc(OCc2ccccc2)cc1)OCc1ccccc1` registered an IC50 of more than 99.5 µM.

On to `NCc1cccc(NC(=O)[C@H](NC(=O)Cn2cccn2)c2ccc(OCc3ccccc3)cc2)c1`, for which the IC50 is more than 99.5 µM.

`C[C@]1(C(=O)N[C@H](C(=O)Nc2cccc(CN)c2)c2ccc(OCc3ccccc3)cc2)CCCO1` gave an IC50 of more than 99.5 µM.

`CCn1c(=O)c(N2CC3(COC3)[C@](F)(CO)C2)nc2ccccc21` had an IC50 of more than 99.5 µM.

Compound `CCn1ccnc(N2CC(=O)[C@@H](c3c[nH]c4ccccc34)C2)c1=O` returned an IC50 of more than 99.5 µM.

Compound `NCc1cccc(NC(=O)c2cc(Cl)ccc2NS(=O)(=O)c2ccc(Oc3ccccc3Cl)cc2)c1` came in with an IC50 of more than 99.5 µM.

For `CCn1c(=O)c(N2C[C@H]3C[C@H]2C(F)(F)C3)nc2ccccc21`, the IC50 was more than 99.5 µM.

On to `O=C(NCc1nnn[nH]1)c1cc(Cl)ccc1NS(=O)(=O)c1ccc(Oc2ccccc2Cl)cc1`, for which the IC50 stood at 64.5 µM.

Turning to `NCc1cccc(NC(=O)C[C@H](NC(=O)OCc2ccccc2)c2ccc(Br)cc2)c1`, the midpoint of inhibition, the IC50, lay at 51.8 µM. The IC50 values of the last two compounds are within 1.5-fold of each other.

Turning to `NCc1ccc(-c2ccc(OCC3CCNCC3)nc2-c2ccc(-c3ccoc3)cc2)cc1`, the IC50 stood at 67.1 µM.

Consider `CCC1CN(C(=O)c2cc(Cl)ccc2NS(=O)(=O)c2ccc(Oc3ccccc3Cl)cc2)C1`, for which the IC50 was more than 99.5 µM.

Broadly, the IC50 is the point on the concentration scale where inhibition reaches its midpoint.
